The test system of one experiment is GSC17 glioblastoma cells. The experiment is described as follows: GSC17 glioma stem cell patient-derived xenograft model (tumor volume, immunohistochemistry). The experiment is classed as in vivo, mice. Here is the method: For the in vivo experiments, 4- to 6-week-old female nude mice that were strictly inbred at The University of Texas MD Anderson Cancer Center and maintained in the MD Anderson Veterinary in accordance with institutional guidelines were used. For the in vivo experiments, GSC11 (5×10^5) or GSC17 (5×10^4) glioblastoma cells were implanted intracranially into nude mice. […] Control mice for these cohorts were treated with phosphate-buffered saline by i.p. injection and/or with 0.4% HPMC vehicle by oral gavage. One cohort of 10 mice per group were treated continuously and followed for survival. A separate cohort of 9 mice per group were treated continuously until the designated time point, and the tumors from these mice were extracted at 3, 4, 5 weeks in GSC11 xenograft mice model and at 3.5, 4.5, 5.5 weeks in GSC17 xenograft mice model after the start of treatment.
When the mice treated for the designated time period developed signs and symptoms of advanced tumors, they were euthanized, and their brains were removed, fixed in 4% formaldehyde for 24 hours, and embedded in paraffin. The tissues were then sectioned serially (4 μm) and stained with hematoxylin and eosin (Sigma-Aldrich). Tumor formation and phenotype were determined by histologic analysis of the hematoxylin- and eosin-stained sections. The tumor volume, greatest longitudinal diameter (length), and greatest transverse diameter (width) were measured using an external caliper and Adobe Illustrator software. The tumor volumes were calculated by the following formula: volume=½(length×width^2).
For immunohistochemical analyses, the tissue sections were deparaffinized and subjected to graded rehydration. After blocking the tissue in 5% horse and goat serum and antigen retrieval solution (citrate buffer, pH 6.0), we incubated the tissue sections overnight at 4° C. with primary antibodies against Factor VIII (1:500; A0082, Dako) to assess microvessel formation, vimentin (1:100; M0725, Dako) to assess mesenchymal marker expression, F4/80 (1:50; 123102, BioLegend) to assess monocyte infiltration, nestin (1:300; Ab6142, Abcam) to assess glioma stem cell marker expression, HGF (1:200; LS-B4657, LSBio), and TIE2 (1:50; Santa Cruz Biotechnology) to assess TIE2-expressing monocyte infiltration. Texas red fluorescein isothiocyanate-conjugated secondary antibodies or anti-rat immunoglobulin G antibodies (Invitrogen) were used for 1 hour at room temperature.
All statistical analyses were conducted with the GraphPad 6 (InStat) software for Windows 7. Survival analysis was conducted using the Kaplan-Meier method, and differences in survival between treatment groups were assessed using the log-rank test. All other comparisons were performed using an unpaired two-tailed Student t-test. Summary statistics for continuous data are expressed as the mean±standard error of the mean. P values less than 0.05 were considered statistically significant. The nestin staining was assessed using the Image-Pro Plus system version 7.0 (Media Cybernetics) in ×10 fields of at least three tumor samples per group with three to four different sections per tumor sample.
For orientation: Xenograft models place foreign cells or tissue in a host animal.

The test system of experiment [1] is HMVEC capillary tube formation. Kind of experiment: HMVEC capillary tube formation. In kind it is cell-based. The conditions noted are these: Homo sapiens. Here is the method: Growth factor reduced Matrigel gel solution (BD Biosciences, San Jose, Calif.) was dispensed using pre-chilled tips into each well of a pre-chilled 96-well black, clear bottom, tissue-culture treated plate. The plate was incubated at 37° C. for 1 h to allow the matrix to form a gel. […] The cell/Compound 1 suspensions were then transferred to the Matrigel plate wells and incubated overnight. The final concentration of DMSO in the assay was 0.5%. The next day, cells were stained with Calcein-AM dye (Life Technologies). Images obtained via fluorescent microscopy were analyzed for tube length using ImagePro Analyzer (Media Cybernetics, Rockville, Md.) with a macro to automatically detect and measure tube formation.

In experiment [2] the test system is macrophage-mediated intravasation of human breast cancer cells (MDA-MB 231-GFP). Kind of experiment: In vitro intravasation-directed transendothelial migration (iTEM) assay. The experiment is classed as cell-based. To be noted: BAC1.2F5 macrophages, HUVEC monolayer. Here is the method: In vitro intravasation-directed transendothelial migration (iTEM) assay protocol. The iTEM assay was performed in a Transwell two-chamber apparatus. The Transwell was prepared so that tumor cell transendothelial migration of tumor cells was in the intravasation direction (from subluminal side to luminal side of the endothelium). We define this as the iTEM assay. To prepare the endothelial monolayer, the underside of each Transwell was coated with 50 μl of Matrigel (2.5 μg/ml; Invitrogen). About 100,000 HUVEC cells were plated on the Matrigel-coated underside of the Transwells. Transwells were then flipped onto a 24-well plate containing 200 μl of α-MEM (minimum essential medium) supplemented with 10% fetal bovine serum (FBS)+3000 U of CSF-1 and incubated until the endothelium formed impermeable monolayers. […] Once impermeable by these criteria, the Transwell assay was used for iTEM studies. All the assays were run in the presence of BAC1.2F5 murine macrophage cell line and MDA-MB 231-GFP human breast cancer cells. Transwells were imaged using a Leica SP5 confocal microscope using a 60×1.4 numerical aperture objective and processed using ImageJ [National Institutes of Health (NIH)] and IMAMS programs. Quantitation was performed by counting the number of tumor cells that had crossed the endothelium within the same field of view (60×, 10 random fields).

The next experiment has as its system PyMT mammary tumor. Kind of experiment: PyMT syngeneic breast cancer model. The experiment is classed as in vivo, mice. As to the method:
Female FVB/NJ mice were implanted in the 4th mammary fat pad with one million cells that had been dissociated from tumor fragments from MMTV-PyMT donor mice. […] Mice (n=10/group) were dosed for three weeks, then, primary tumor and lungs were collected and fixed. Lung sections were stained with H&E at Premier Laboratory. Lung metastases (≧10 cells) were counted manually via microscopy. Data were analyzed via one-way analysis of variance (ANOVA), with post-hoc analysis by the method of Holm-Sidak. For analysis of TIE2-positive macrophages, tumor sections were stained with TIE2 and CD31 antibodies at Premier Laboratory. The density of TIE2-positive cells at the stroma/tumor boundary in each tumor was scored using 0=no staining, 1=low, 2=medium, and 3=high.

The structures appear in SMILES notation. Like-named read-outs stand apart in the source and are kept apart here.

On to `O=C(Nc1cc(Oc2cc(F)c(NC(=O)C3(C(=O)Nc4ccc(F)cc4)CC3)cc2F)ccn1)C1CC1` [Compound 1, N-(4-(2-(cyclopropanecarboxamido)pyridin-4-yloxy)-2,5-difluorophenyl)-N′-(4-fluorophenyl)cyclopropane-1,1-dicarboxamide], for which, in the experiment on GSC17 glioblastoma cells (GSC17, bevacizumab 10 mg/kg i.p. twice per week, Compound 1 10 mg/kg oral twice daily), the “Tumor volume at 3.5 weeks” value turned out to be 0.1±0.2 mm^3. In the experiment with GSC17 glioblastoma cells (GSC17, same dosing), the “Tumor volume at 4.5 weeks” value worked out at 9.8±3.9 mm^3. Further, the “Tumor volume at 5.5 weeks” value in the experiment with GSC17 glioblastoma cells (GSC17, same dosing) is given as 10.1±1.4 mm^3. Also, the “Factor VIII-positive area” value in the experiment with GSC17 glioblastoma cells (GSC17 xenograft mouse model) is reported as 1.0±0.2%. In the experiment on GSC17 glioblastoma cells (GSC17 xenograft mouse model), this molecule registered a Nestin-positive area of 2.9±1.0%. Further, the “Mesenchymal tumor marker vimentin / EMT (immunohistochemistry)” value in the experiment with GSC17 glioblastoma cells (GSC-17 glioma model) is on record as “decreases levels of vimentin”. The “Tumor infiltration of TIE2-positive/F4/80-positive cells” value with GSC17 glioblastoma cells (GSC-17 glioma xenograft model) was “lower”. Besides, the concentration for half-maximal inhibition (IC50) (usually the concentration that gives 50% inhibition) in experiment [1] (40 ng/mL HGF, read-out: IC50, capillary tube formation upon stimulation with HGF) is 0.011 µM; in experiment [1] (100 ng/mL VEGF, read-out: IC50, capillary tube formation upon stimulation with VEGF), 0.058 µM; in experiment [1] (200 ng/mL ANG2, read-out: IC50, capillary tube formation upon stimulation with ANG2), 0.007 µM; in experiment [2], under 0.01 µM. The “Tumor growth inhibition (TGI)” value with PyMT mammary tumor (after dosing for three weeks, paclitaxel 10 mg/kg i.v. every 5 days, Compound 1 15 mg/kg twice daily) is listed as 69%. In addition, the “Reduction of TIE2 score (stromal density of TIE2+ cells)” value in the experiment with PyMT mammary tumor (same dosing) was 50%. Also, the “Reduction of lung metastases compared to controls” value in the experiment on PyMT mammary tumor (same dosing) is on record as 74%.

The record behind these values is US20170079966A1, “INHIBITION OF TUMOR CELL INTERACTIONS WITH THE MICROENVIRONMENT RESULTING IN A REDUCTION IN TUMOR GROWTH AND DISEASE PROGRESSION” (Deciphera Pharmaceuticals, LLC, priority 2014, published 2017).
